Results published in patent US8809331B2 (Genentech, Inc., priority 2011, dated 2014).
pKi: −log10 of the molar value.

Target: T1, LRRK2 (Homo sapiens, UniProt Q5S007, G2019S)
T1 construct: purchased Invitrogen PV4882
Test: In Vitro LRRK2 LabChip Assay (LRRK2 Ki)
Format: biochemical
Settings: Table 5 compounds (formula I)

T1 sequence (Q5S007 whole entry G2019S): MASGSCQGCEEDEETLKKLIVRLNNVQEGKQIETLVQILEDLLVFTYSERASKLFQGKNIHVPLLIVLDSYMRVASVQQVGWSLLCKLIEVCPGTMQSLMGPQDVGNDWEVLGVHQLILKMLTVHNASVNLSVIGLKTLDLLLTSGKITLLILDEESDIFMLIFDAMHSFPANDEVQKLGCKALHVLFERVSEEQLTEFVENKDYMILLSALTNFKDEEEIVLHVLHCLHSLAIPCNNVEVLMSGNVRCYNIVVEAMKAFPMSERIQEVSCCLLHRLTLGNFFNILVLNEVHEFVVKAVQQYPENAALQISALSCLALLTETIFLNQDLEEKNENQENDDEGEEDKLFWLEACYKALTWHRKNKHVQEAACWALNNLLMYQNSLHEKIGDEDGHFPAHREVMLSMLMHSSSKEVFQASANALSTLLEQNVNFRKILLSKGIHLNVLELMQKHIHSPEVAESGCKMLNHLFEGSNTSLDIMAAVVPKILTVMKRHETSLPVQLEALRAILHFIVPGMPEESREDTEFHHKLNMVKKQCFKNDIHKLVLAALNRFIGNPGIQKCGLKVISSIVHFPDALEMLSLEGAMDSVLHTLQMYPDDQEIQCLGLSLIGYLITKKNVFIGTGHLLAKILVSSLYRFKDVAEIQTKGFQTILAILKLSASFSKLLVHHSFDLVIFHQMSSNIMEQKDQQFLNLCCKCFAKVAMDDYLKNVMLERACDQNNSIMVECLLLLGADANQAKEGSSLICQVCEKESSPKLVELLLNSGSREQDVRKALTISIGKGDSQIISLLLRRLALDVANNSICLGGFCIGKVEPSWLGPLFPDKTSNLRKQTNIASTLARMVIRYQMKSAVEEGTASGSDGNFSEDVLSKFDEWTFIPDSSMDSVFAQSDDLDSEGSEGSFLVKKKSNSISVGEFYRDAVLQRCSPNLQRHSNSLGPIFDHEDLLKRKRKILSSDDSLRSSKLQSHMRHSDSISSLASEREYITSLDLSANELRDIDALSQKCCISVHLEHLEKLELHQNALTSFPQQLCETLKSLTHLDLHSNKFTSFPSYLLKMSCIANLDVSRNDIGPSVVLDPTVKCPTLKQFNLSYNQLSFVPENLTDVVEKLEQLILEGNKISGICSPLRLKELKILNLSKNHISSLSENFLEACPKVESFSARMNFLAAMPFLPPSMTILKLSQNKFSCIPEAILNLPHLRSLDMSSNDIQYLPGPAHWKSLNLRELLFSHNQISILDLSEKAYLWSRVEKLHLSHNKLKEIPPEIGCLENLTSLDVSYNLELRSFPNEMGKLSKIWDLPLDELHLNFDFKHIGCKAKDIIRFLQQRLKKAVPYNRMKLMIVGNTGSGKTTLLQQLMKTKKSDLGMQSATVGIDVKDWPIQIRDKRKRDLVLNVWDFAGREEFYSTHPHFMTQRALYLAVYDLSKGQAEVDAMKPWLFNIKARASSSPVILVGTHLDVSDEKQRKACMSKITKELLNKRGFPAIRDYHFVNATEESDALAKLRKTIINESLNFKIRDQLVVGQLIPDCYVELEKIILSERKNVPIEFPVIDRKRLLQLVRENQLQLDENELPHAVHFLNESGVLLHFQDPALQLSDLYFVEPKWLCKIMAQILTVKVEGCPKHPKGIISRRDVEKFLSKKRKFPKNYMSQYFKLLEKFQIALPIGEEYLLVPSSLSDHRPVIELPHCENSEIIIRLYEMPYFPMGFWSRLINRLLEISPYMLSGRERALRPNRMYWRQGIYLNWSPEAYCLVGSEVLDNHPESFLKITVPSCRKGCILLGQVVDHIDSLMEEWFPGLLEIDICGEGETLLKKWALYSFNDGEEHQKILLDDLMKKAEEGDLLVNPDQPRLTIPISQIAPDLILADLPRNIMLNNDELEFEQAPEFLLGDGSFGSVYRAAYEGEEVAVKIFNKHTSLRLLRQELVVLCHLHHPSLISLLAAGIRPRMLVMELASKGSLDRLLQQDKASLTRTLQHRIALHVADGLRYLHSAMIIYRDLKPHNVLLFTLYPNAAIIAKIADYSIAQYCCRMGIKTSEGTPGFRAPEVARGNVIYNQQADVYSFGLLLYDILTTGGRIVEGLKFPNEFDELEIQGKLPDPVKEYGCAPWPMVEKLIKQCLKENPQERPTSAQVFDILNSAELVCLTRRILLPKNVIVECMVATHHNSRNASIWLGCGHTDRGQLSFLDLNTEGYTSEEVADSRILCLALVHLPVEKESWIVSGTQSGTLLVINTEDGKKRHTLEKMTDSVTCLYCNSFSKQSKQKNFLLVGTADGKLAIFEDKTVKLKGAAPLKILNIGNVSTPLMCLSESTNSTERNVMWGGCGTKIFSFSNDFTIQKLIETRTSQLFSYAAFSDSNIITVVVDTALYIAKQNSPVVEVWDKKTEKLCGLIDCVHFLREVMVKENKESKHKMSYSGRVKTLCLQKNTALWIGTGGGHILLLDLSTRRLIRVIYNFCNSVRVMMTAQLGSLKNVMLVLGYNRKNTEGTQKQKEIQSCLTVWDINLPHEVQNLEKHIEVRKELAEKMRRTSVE

Row | Compound | pKi
1 | CNc1nc(Nc2cc(F)c(C(=O)N3CCOCC3)cc2F)ncc1Cl [Compound 17, [4-(5-Chloro-4-methylamino-pyrimidin-2-ylamino)-2,5-difluoro-phenyl]-morpholin-4-yl-methanone] | 7.45
2 | CNc1nc(Nc2cc(C)c(C(=O)N3CCOCC3)cc2OCCF)ncc1C(F)(F)F [Compound 84, [5-(2-Fluoro-ethoxy)-2-methyl-4-(4-methylamino-5-trifluoromethyl-pyrimidin-2-ylamino)-phenyl]-morpholin-4-yl-methanone] | 8.63
3 | CNc1nc(Nc2cc(OC)c(C(=O)N3CCOCC3)c(OC)c2Cl)ncc1C(F)(F)F [Compound 82, [3-Chloro-2,6-dimethoxy-4-(4-methylamino-5-trifluoromethyl-pyrimidin-2-ylamino)-phenyl]-morpholin-4-yl-methanone] | 8.55
4 | CNc1nc(Nc2cc(C)c(C(=O)N3CCCC3)cc2OCF)ncc1C(F)(F)F [Compound 101, [5-Fluoromethoxy-2-methyl-4-(4-methylamino-5-trifluoromethyl-pyrimidin-2-ylamino)-phenyl]-pyrrolidin-1-yl-methanone] | 9.16
5 | [2H]C1([2H])OC([2H])([2H])C([2H])([2H])N(C(=O)c2cc(Cl)c(Nc3ncc(C(F)(F)F)c(NCC)n3)cc2OC)C1([2H])[2H] [Compound 86, (5-chloro-4-(4-(ethylamino)-5-(trifluoromethyl)pyrimidin-2-ylamino)-2-methoxyphenyl)(perdeuteromorpholino)methanone] | 8.39
6 | CNc1nc(Nc2cc(C)c(C(=O)N3CCOCC3)cc2Cl)ncc1C(F)(F)F [Compound 2, [5-Chloro-2-methyl-4-(4-methylamino-5-trifluoromethyl-pyrimidin-2-ylamino)-phenyl]-morpholin-4-yl-methanone] | 8.15
7 | COc1cc(Nc2ncc(C(F)(F)F)c(NC3CCC3)n2)c(F)cc1C(=O)N1CCOCC1 [Compound 112, [4-(4-Cyclobutylamino-5-trifluoromethyl-pyrimidin-2-ylamino)-5-fluoro-2-methoxy-phenyl]-morpholin-4-yl-methanone] | 9.45
8 | COc1cc(C(=O)N2CCOCC2)c(F)cc1Nc1ncc(C(F)(F)F)c(N2CCC2)n1 [Compound 26, [4-(4-Azetidin-1-yl-5-trifluoromethyl-pyrimidin-2-ylamino)-2-fluoro-5-methoxy-phenyl]-morpholin-4-yl-methanone] | 7.50
9 | CNc1nc(Nc2cc(OC(F)(F)F)c(C(=O)N3CCOCC3)cc2OC)ncc1C(F)(F)F [Compound 124, [5-Methoxy-4-(4-methylamino-5-trifluoromethyl-pyrimidin-2-ylamino)-2-trifluoromethoxy-phenyl]-morpholin-4-yl-methanone] | 8.37
10 | COc1cc(C(=O)N2CCOCC2)c(F)cc1Nc1ncc(C(F)(F)F)c(NC2CCC2)n1 [Compound 91, [4-(4-Cyclobutylamino-5-trifluoromethyl-pyrimidin-2-ylamino)-2-fluoro-5-methoxy-phenyl]-morpholin-4-yl-methanone] | 9.51
11 | CNc1nc(Nc2ccc(C(=O)N3CCOCC3)c(F)c2Cl)ncc1C(F)(F)F [Compound 60, [3-Chloro-2-fluoro-4-(4-methylamino-5-trifluoromethyl-pyrimidin-2-ylamino)-phenyl]-morpholin-4-yl-methanone] | 7.85
12 | CNc1nc(Nc2ccc(C(=O)N3CCOCC3)cc2OC2CC2)ncc1C(F)(F)F [Compound 77, [3-Cyclopropoxy-4-(4-methylamino-5-trifluoromethyl-pyrimidin-2-ylamino)-phenyl]-morpholin-4-yl-methanone] | 8.79
13 | CNc1nc(Nc2cc(OC)c(C(=O)N3CC(N4CCOCC4)C3)cc2Cl)ncc1C(F)(F)F [Compound 20, [5-Chloro-2-methoxy-4-(4-methylamino-5-trifluoromethyl-pyrimidin-2-ylamino)-phenyl]-(3-morpholin-4-yl-azetidin-1-yl)-methanone] | 8.51
14 | CNc1nc(Nc2cc(F)c(C(=O)N3CCC(N4CCOCC4)CC3)cc2OC)ncc1C(F)(F)F [Compound 8, [2-Fluoro-5-methoxy-4-(4-methylamino-5-trifluoromethyl-pyrimidin-2-ylamino)-phenyl]-(4-morpholin-4-yl-piperidin-1-yl)-methanone] | 9.15
15 | CCNc1nc(Nc2cc(Cl)c(C(=O)N3CCOCC3)cc2F)ncc1C(F)(F)F [Compound 59, [2-Chloro-4-(4-ethylamino-5-trifluoromethyl-pyrimidin-2-ylamino)-5-fluoro-phenyl]-morpholin-4-yl-methanone] | 8.37
16 | CNc1nc(Nc2cc(OC)c(C(=O)N3CCOCC3)c(OC)c2F)ncc1C(F)(F)F [Compound 122, [3-Fluoro-2,6-dimethoxy-4-(4-methylamino-5-trifluoromethyl-pyrimidin-2-ylamino)-phenyl]-morpholin-4-yl-methanone] | 8.69
17 | COc1cc(C(=O)N2CCOCC2)c(C)cc1Nc1ncc(C(F)(F)F)c(NC2CC2)n1 [Compound 42, [4-(4-Cyclopropylamino-5-trifluoromethyl-pyrimidin-2-ylamino)-5-methoxy-2-methyl-phenyl]-morpholin-4-yl-methanone] | 9.51

Next, values leading:

Row | pKi | Compound
18 | 7.71 | CNc1nc(Nc2cc(OC)c(C(=O)N(C)CC(C)(C)O)cc2F)ncc1C(F)(F)F [Compound 29, 5-Fluoro-N-(2-hydroxy-2-methyl-propyl)-2-methoxy-N-methyl-4-(4-methylamino-5-trifluoromethyl-pyrimidin-2-ylamino)-benzamide]
19 | 7.94 | CNc1nc(Nc2cc(O)c(C(=O)N3CCOCC3)cc2Cl)ncc1C(F)(F)F [Compound 10, [5-Chloro-2-hydroxy-4-(4-methylamino-5-trifluoromethyl-pyrimidin-2-ylamino)-phenyl]-morpholin-4-yl-methanone]
20 | 8.02 | CCNc1nc(Nc2cc(F)c(C(=O)N3CCOCC3)cc2F)ncc1C(F)(F)F [Compound 31, [4-(4-Ethylamino-5-trifluoromethyl-pyrimidin-2-ylamino)-2,5-difluoro-phenyl]-morpholin-4-yl-methanone]
21 | 8.16 | CNc1nc(Nc2cc(F)c(C(=O)N3CCOC(C)(C)C3)cc2OC)ncc1C(F)(F)F [Compound 76, (2,2-Dimethyl-morpholin-4-yl)-[2-fluoro-5-methoxy-4-(4-methylamino-5-trifluoromethyl-pyrimidin-2-ylamino)-phenyl]-methanone]
22 | 8.33 | CNc1nc(Nc2cc(C(F)(F)F)c(C(=O)N3CCOCC3)cc2OC)ncc1Cl [Compound 68, [4-(5-Chloro-4-methylamino-pyrimidin-2-ylamino)-5-methoxy-2-trifluoromethyl-phenyl]-morpholin-4-yl-methanone]
23 | 8.46 | CCNc1nc(Nc2cc(OCF)c(C(=O)N3CCCC3)cc2F)ncc1C(F)(F)F [Compound 121, [4-(4-Ethylamino-5-trifluoromethyl-pyrimidin-2-ylamino)-5-fluoro-2-fluoromethoxy-phenyl]-pyrrolidin-1-yl-methanone]
24 | 8.56 | CNc1nc(Nc2cc(OC)c(C(=O)N3CC4(CCO4)C3)cc2Cl)ncc1C(F)(F)F [Compound 40, [5-Chloro-2-methoxy-4-(4-methylamino-5-trifluoromethyl-pyrimidin-2-ylamino)-phenyl]-(1-oxa-6-aza-spiro[3.3]hept-6-yl)-methanone]
25 | 8.56 | CCNc1nc(Nc2cc(F)c(C(=O)N3CCOCC3)cc2C)ncc1C(F)(F)F [Compound 118, [4-(4-Ethylamino-5-trifluoromethyl-pyrimidin-2-ylamino)-2-fluoro-5-methyl-phenyl]-morpholin-4-yl-methanone]
26 | 8.69 | CCNc1nc(Nc2cc(F)c(C(=O)N3CCOCC3)cc2OCCF)ncc1C(F)(F)F [Compound 49, [4-(4-Ethylamino-5-trifluoromethyl-pyrimidin-2-ylamino)-2-fluoro-5-(2-fluoro-ethoxy)-phenyl]-morpholin-4-yl-methanone]
27 | 8.79 | CNc1nc(Nc2cc(OC)c(C(=O)N3CCCCC3)cc2OCF)ncc1C(F)(F)F [Compound 110, [5-Fluoromethoxy-2-methoxy-4-(4-methylamino-5-trifluoromethyl-pyrimidin-2-ylamino)-phenyl]-piperidin-1-yl-methanone]
28 | 8.91 | CCNc1nc(Nc2cc(C)c(C(=O)N3CCOCC3)cc2F)ncc1C(F)(F)F [Compound 103, [4-(4-Ethylamino-5-trifluoromethyl-pyrimidin-2-ylamino)-5-fluoro-2-methyl-phenyl]-morpholin-4-yl-methanone]
29 | 9.39 | CCNc1nc(Nc2cc(F)c(C(=O)NC(C)(C)CO)cc2OC)ncc1C(F)(F)F [Compound 106, 4-(4-Ethylamino-5-trifluoromethyl-pyrimidin-2-ylamino)-2-fluoro-N-(2-hydroxy-1,1-dimethyl-ethyl)-5-methoxy-benzamide]

Same assay, conditions: Table 6 compounds (formula II/III, fused ring)

Row | pKi | Compound
30 | 9.51 | CNc1nc(Nc2cc(C)c(C(=O)N3CCOCC3)cc2Cl)ncc1C(F)(F)F [Compound 2, [5-Chloro-2-methyl-4-(4-methylamino-5-trifluoromethyl-pyrimidin-2-ylamino)-phenyl]-morpholin-4-yl-methanone]
31 | 9.20 | CCNc1nc(Nc2ccc(C(=O)N3CCC(F)(F)C3)c3c2OCCO3)ncc1C(F)(F)F [Compound 6]
